Measurements: patent US9586928B2 (The Scripps Research Institute, priority 2011, dated 2017)

Tests used:
EL-4 cells [1] = test: IL-17A and IL-23R mRNA in PMA/ionomycin stimulated EL-4 cells (real-time PCR); type: cell-based, murine; details: 5 μM pre-treatment 20 hr, PMA/ionomycin stimulation
Experimental: (§1) The treatment of EL4 with SR2211 repressed the Il17 gene expression to a greater extent as compared to digoxin. […] In order to measure the effect of SR2211 on IL-17 production, we determined the intracellular levels of IL-17 using flow cytometry. After the stimulation of EL-4 cells with PMA/ionomycin for 3 hr, the cells were treated with BD GolgiPlug™ (protein transport inhibitor) to allow intracellular accumulation of cytokines. After 2 hr, the cells were fixed and stained to analyze the IL-17 by flow cytometry.
One million EL-4 cells were seeded in each well of 6 well plate and incubated with 5 uM of digoxin or SR2211 or DMSO for 20 hrs. Cells were then stimulated with phorbol 12-myristate 13-acetate (PMA) (50 ng/ml; Sigma) and Ionomycin (1 ug/ml; Sigma) for 5 hours. Then, RNA was extracted with RNeasy midi kit using DNase I (Qiagen), then cDNA was synthesized with high capacity cDNA Reverse Transcription kits (Applied Biosystems). IL17A gene expression was normalized to the expression of GAPDH. IL17A, IL-23R and GAPDH primer sets were as follows: […]

EL-4 cells [2] = test: Intracellular IL-17 in PMA/ionomycin stimulated EL-4 cells (flow cytometry); type: cell-based, murine; details: 5 μM, compared to vehicle treated cells
Experimental: as §1
For intracellular cytokine staining, cells were stimulated with PMA (50 ng/Ml) and lonomycin (1 ug/ml) for 5 hrs. After 3 hrs of incubation, BD Golgiplug (BD Bioscience) was added and incubated for 2 hrs. Then, cells were fixed, permeabilized, and stained with PEIL17A Ab (BD Biosciences). Cell sorting was performed using LSRII (BD Biosciences). • 1. Ivanov, I I; McKenzie, B. S.; Zhou, L.; Tadokoro, C. E.; Lepelley, A.; Lafaille, J. J.; Cua, D. J.; Littman, D. R. (2006) The orphan nuclear receptor RORgammat directs the differentiation program of proinflammatory IL-17+ T helper cells. Cell 126, 1121-1133. • 2. Nakae, S.; Nambu, A.; Sudo. K.; Iwakura. Y. (2003) Suppression of immune induction of collagen-induced arthritis in IL-17-deficient mice. J Immunol 171, 6173-6177. • 3. Jetten. […]

TH17 cells = details: in vitro and in vivo; cited from earlier work
[3] = mouse, in vivo; cited from earlier work

For `C[C@H]1O[C@@H](O[C@H]2[C@@H](O)C[C@H](O[C@H]3[C@@H](O)C[C@H](O[C@H]4CC[C@@]5(C)[C@H](CC[C@@H]6[C@@H]5C[C@@H](O)[C@]5(C)[C@@H](C7=CC(=O)OC7)CC[C@]65O)C4)O[C@@H]3C)O[C@@H]2C)C[C@H](O)[C@@H]1O` [digoxin, reference compound], the IL-17 gene expression (EL-4 cells [1]) was “significant reduction in the IL-17 gene expression”, the “expression of IL-23 receptor (Il23r)” value (EL-4 cells [1]) was “significantly inhibited” and the IL-17 intracellular staining (EL-4 cells [2]) was “significant inhibition of IL-17 intracellular staining”.
For `CC(=O)Nc1nc(C)c(S(=O)(=O)Nc2ccc(C(O)(C(F)(F)F)C(F)(F)F)cc2)s1` [SR1001, N-(5-(N-(4-(1,1,1,3,3,3-hexafluoro-2-hydroxypropan-2-yl)phenyl)sulfamoyl)-4-methylthiazol-2-yl)acetamide], the “TH17 cell differentiation and function” value (TH17 cells) is listed as “effective at suppressing TH17 cell differentiation and function in vitro and in vivo” and the “onset and severity of EAE” value [3] is listed as “effective at delaying the onset and reducing the severity”.
